Patent publication US20040242501A1, “Spermicidal and virucidal properties of various forms of sophorolipids” (priority 2003, published 2004)

Assays:
HIV-1 RF = test: Cell-free HIV inactivation assay; format: cell-based, human immunodeficiency virus (HIV); settings: for virucidal / antiviral activity, in words: HIV as model organism, positive = minimum reduction in virus titer of 2 logs; for Log Reduction in Virus Titer: two-minute exposure, day 7, virus control 6.0 log10 TCID50/0.1 mL
Description: (§1) Pre-titered concentrated virus (HIV-1 RF) stock (10 μL) was mixed with 90 μL of the test agent formulation in microtubes. At the end of the two-minute exposure period, serial 10-fold dilutions were carried out with a multichannel pipettor so that the sample dilutions were performed simultaneously. Aliquots (100 μL) of the serial dilutions were then transferred simultaneously to another 96-well plate which had been pre-seeded with MT-2 cells in RPMI medium supplemented with FBS. Four wells were used for each dilution of virus. The cultures were incubated at 37° C. in a humidified atmosphere of 5% CO2. The cultures were scored microscopically for virus-induced cytopathic effect and agent-induced cytotoxicity on day 4 and 7 of incubation, and day 7 reported. Cultures were routinely maintained 2 to 3 days after initial analysis, and observed visually and microscopically for abnormalities.

MT-2 cells = test: Agent-induced cytotoxicity in cell-free inactivation assay; format: cell-based; design: TCTD50 Cytotoxicity: unit not given here; settings: for TCTD50 Cytotoxicity: MT-2 cells, day 7
Description: as §1

[1] = test system: human spermatozoa (swim-up sperm); test: Sperm motility time response (real-time and post-dilution/post-wash); format: cell-based; settings: 0.3 mg/mL, mean ± SD, n=5; for Real-Time Motility (%): initial solvent DMSO; for Post-Dilution Motility (%): then washed, 30 min post-washing
Description: (§2) Motility and viability time-responses were studied with a sophorolipid testing concentration of 0.3 mg/mL. At this concentration no effect of the solvent was observed. All sperm used for this experiment and throughout the study were obtained from human semen samples through a one hour swim-up separation technique in BWW medium+0.1% HSA. 100 uL of swim-up sperm were incubated with 1 uL of compound for the time points of 2 min, 30 min, 2 hrs, and 4 hrs and assessed for progressive motility (“real-time” assessment). n=5 for all time points. Co-incubation samples were diluted with 1 mL of BWW medium+0.1% HSA. The tubes were centrifuged, the supernatant removed, and the sperm resuspended in the original volume of 100 uL BWW+0.1% HSA and incubated at 37° C., 5% CO2. At 30 min post-washing, motility was again assessed. After the 30 min post-wash assessment, 900 uL of HOS medium was added to the sample and tubes were incubated for 30 min at 37° C. Post-incubation, samples were assessed for viability. Motility and viability were quantified “manually” under dark field microscopy (Nikon E-800).

[2] = test system: human spermatozoa (swim-up sperm); test: Sperm viability after washing (HOS medium); format: cell-based; settings: 0.3 mg/mL, post-wash, mean ± SD, n=5
Description: as §2

[3] = Percent of agent during exposure 0.03
[4] = Percent of agent during exposure 0.09
[5] = Percent of agent during exposure 0.3

Which “virucidal / antiviral activity, in words” value (HIV-1 RF) does the source give for CCOC(=O)CCCCCCC/C=C\CCCCCCC(C)O[C@@H]1O[C@H](CO)[C@@H](O)[C@H](O)[C@H]1O[C@@H]1O[C@H](CO)[C@@H](O)[C@H](O)[C@H]1O (stereo partly shown) here?
The value was “high activity”.

And the “selectivity index (virucidal activity vs cytotoxicity), in words” value (HIV-1 RF; comparison among the four sophorolipids of Table 2)?
Its value is “best selectivity index”.

What about the “cytotoxicity, in words” value (MT-2 cells) of the same compound?
The value was “reduced cytotoxicity”.

Which results are given for CCOC(=O)CCCCCCC/C=C\CCCCCCC(C)O[C@@H]1O[C@H](CO)[C@@H](O)[C@H](O)[C@H]1O[C@@H]1O[C@H](CO)[C@@H](O)[C@H](O)[C@H]1O (relative stereo) [SLET, Ethyl 17-L-[(2′-O-β-D-glucopyranosyl-β-D-glucopyranosyl)-oxy]-cis-9-octadecenoate]?
Real-Time Motility (%) ([1]; 2 min incubation): 0.73 ± 0.81%; Post-Dilution Motility (%) ([1]; 2 min incubation): 3.37 ± 3.87%; Real-Time Motility (%) ([1]; 30 min incubation): 0.00 ± 0.00%; Post-Dilution Motility (%) ([1]; 30 min incubation): 0.00 ± 0.00%; Real-Time Motility (%) ([1]; 2 hour incubation): 0.00 ± 0.00%; Post-Dilution Motility (%) ([1]; 2 hour incubation): 0.00 ± 0.00%; Post-Dilution Viability (%) ([2]; 2 min incubation): 2.36 ± 5.29%; Post-Dilution Viability (%) ([2]; 30 min incubation): 1.00 ± 2.24%; Post-Dilution Viability (%) ([2]; 2 hour incubation): 0.00 ± 0.00%; virucidal / antiviral activity, in words (HIV-1 RF; listed as ethyl ester form of sophorolipid): highly effective; Log Reduction in Virus Titer (HIV-1 RF; [3]): 2.0 Log; Log Reduction in Virus Titer (HIV-1 RF; [4]): 3.3 Log; Log Reduction in Virus Titer (HIV-1 RF; [5]): 4.3 Log; TCTD50 Cytotoxicity (MT-2 cells; [3]): ≦0.5; TCTD50 Cytotoxicity (MT-2 cells; [4]): ≦0.5; TCTD50 Cytotoxicity (MT-2 cells; [5]): 1.5

For CCOC(=O)CCCCCCC/C=C\CCCCCCC(C)O[C@@H]1O[C@H](COC(C)=O)[C@@H](O)[C@H](O)[C@H]1O[C@@H]1O[C@H](COC(C)=O)[C@@H](O)[C@H](O)[C@H]1O (relative stereo) [SLETDA, Ethyl 17-L[(2′-O-β-D glucopyranosyl-β-D-glucopyranosyl)-oxy]-cis-9-octadecenoate 6′,6″-diacetate], which “Real-Time Motility (%)” value ([1]; 2 min incubation) is on record?
The value was 0.00 ± 0.00%.

What about the “Post-Dilution Motility (%)” value ([1]; 2 min incubation) of the same compound?
The value was 0.00 ± 0.00%.

And the “Real-Time Motility (%)” value ([1]; 30 min incubation)?
Its value is 0.00 ± 0.00%.

What about the “Post-Dilution Motility (%)” value ([1]; 30 min incubation) of the same compound?
The value was 0.00 ± 0.00%.

And the “Real-Time Motility (%)” value ([1]; 2 hour incubation)?
The value was 0.00 ± 0.00%.

What about the “Post-Dilution Motility (%)” value ([1]; 2 hour incubation) of the same compound?
Its value is 0.00 ± 0.00%.

And the “Post-Dilution Viability (%)” value ([2]; 2 min incubation)?
The value was 0.40 ± 0.90%.

And the “Post-Dilution Viability (%)” value ([2]; 30 min incubation)?
The value was 0.20 ± 0.45%.

And the “Post-Dilution Viability (%)” value ([2]; 2 hour incubation)?
The value was 0.00 ± 0.00%.

And the “Log Reduction in Virus Titer” value (HIV-1 RF; [3])?
Its value is 1.7 Log.

And the “Log Reduction in Virus Titer” value (HIV-1 RF; [4])?
Its value is “≧4.5 Log”.

And the “Log Reduction in Virus Titer” value (HIV-1 RF; [5])?
Its value is “≧4.5 Log”.

And the “TCTD50 Cytotoxicity” value (MT-2 cells; [3])?
Its value is “≦0.5”.

And the “TCTD50 Cytotoxicity” value (MT-2 cells; [4])?
Its value is 1.5.

And the “TCTD50 Cytotoxicity” value (MT-2 cells; [5])?
Its value is 1.5.

With CCCCCCOC(=O)CCCCCCC/C=C\CCCCCCC(C)O[C@@H]1O[C@H](CO)[C@@H](O)[C@H](O)[C@H]1O[C@@H]1O[C@H](CO)[C@@H](O)[C@H](O)[C@H]1O (relative stereo) [SLHEX, Hexyl 17-L-[(2′-O-β-D-glucopyranosyl-β-D-glucopyranosyl)-oxy]-cis-9-octadecenoate] as the compound, how does the “Real-Time Motility (%)” value ([1]; 2 min incubation) read?
The value was 1.26 ± 1.22%.

What about the “Post-Dilution Motility (%)” value ([1]; 2 min incubation) of the same compound?
The value was 1.55 ± 2.18%.

What about the “Real-Time Motility (%)” value ([1]; 30 min incubation) of the same compound?
Its value is 0.00 ± 0.00%.

What about the “Post-Dilution Motility (%)” value ([1]; 30 min incubation) of the same compound?
Its value is 0.00 ± 0.00%.

What about the “Real-Time Motility (%)” value ([1]; 2 hour incubation) of the same compound?
Its value is 0.00 ± 0.00%.

What about the “Post-Dilution Motility (%)” value ([1]; 2 hour incubation) of the same compound?
The value was 0.00 ± 0.00%.

What about the “Post-Dilution Viability (%)” value ([2]; 2 min incubation) of the same compound?
Its value is 2.27 ± 3.22%.

What about the “Post-Dilution Viability (%)” value ([2]; 30 min incubation) of the same compound?
Its value is 1.10 ± 2.46%.

And the “Post-Dilution Viability (%)” value ([2]; 2 hour incubation)?
The value was 0.00 ± 0.00%.

What about the “Log Reduction in Virus Titer” value (HIV-1 RF; [3]) of the same compound?
The value was 0 Log.

What about the “Log Reduction in Virus Titer” value (HIV-1 RF; [4]) of the same compound?
The value was 3.0 Log.

What about the “Log Reduction in Virus Titer” value (HIV-1 RF; [5]) of the same compound?
Its value is 4.0 Log.

What about the “TCTD50 Cytotoxicity” value (MT-2 cells; [3]) of the same compound?
Its value is “≦0.5”.

And the “TCTD50 Cytotoxicity” value (MT-2 cells; [4])?
The value was “≦0.5”.

What about the “TCTD50 Cytotoxicity” value (MT-2 cells; [5]) of the same compound?
Its value is 1.5.
